# Where two headings read alike, the source gives them in different places.
# Columns and labels:
# [1] = molecular target: T1, IRK (Homo sapiens, UniProt P06213); test: IRK (insulin receptor kinase) assay; format: biochemical; settings: Table 1; read-out: IRK IC50
# T1 construct: 6×His- or GST-tagged kinase domain fragments of the corresponding RTKs expressed in baculovirus system; host or cells: baculovirus system
# Method: (§1) To determine inhibition of several tyrosine kinases, such as IGF1R, InsR, Alk, TrkA and Jak2, kinase assays are conducted using either Kinase-Glo (Promega) or AlphaScreen (PerkinElmer) kinase assay platforms. The Kinase-Glo Luminescent Kinase Assay is a homogeneous method for measuring kinase activity by determining the amount of ATP remaining after a kinase reaction. The luminescent signal is proportional to the amount of ATP and inversely proportional to the amount of kinase activity. Tyrosine kinase PT66 AlphaScreen Assay is a high-sensitivity homogeneous, anti-phosphotyrosine antibody-mediated luminescent proximity method measuring incorporation of phosphate in synthetic poly(Glu-Tyr) substrate. The kinase preparations used consist of purified recombinant, 6×His- or GST-tagged kinase domain fragments of the corresponding RTKs expressed in baculovirus system.
# (§2) Compounds with a range of concentrations 40 μM, 20 μM, 10 μM, 5 μM, 2.5 μM, 1.25 μM, 0.625 μM, 0.3125 μM, 0.15625 μM and 0.078125 μM were incubated with NPM-ALK, which was produced in insect cells as a 6×HIS-tagged fusion protein and purified using nickel-charged resin chromatography, for 30 minutes at RT in the presence of 10 μM ATP and 7.0 ng biotinylated poly-GT. A 1:1 mixture of […] and donor beads was then added to the reaction and incubated for an additional 60 minutes at RT. The assay was conducted on a MultiPROBE liquid handling workstation (PerkinElmer) in a 384-well plate format with a total reaction volume of 40 μL per well. Working stocks of all compounds were dissolved in 100% DMSO and serial dilutions of the compounds were performed using kinase buffer (50 mM Tris-HCl (pH 7.5), 5 mM MgCl2, 5 mM MnCl2, 2 mM DTT (added freshly before use), 0.01% Tween-20) containing 5% DMSO. […] Data were collected as optical readings at 520-680 nm on a Fusion™ microplate analyzer (PerkinElmer), and IC50 and Ki values calculated using PRISM3.0 software (GraphPad Software, Inc., San Diego, Calif.). The same assay was also used with minor modifications to assess the IC50 and Ki values for selected compounds against five other tyrosine kinases (IRK, IGF1R, Flt3, Abl, Src), all of which were purchased from commercial vendors. PolyGT-Biotin was bought from CIS Biointernational Cat. #61GT0BLD; ATP—from Sigma Cat. # A7699; sodium orthovanadate—from Sigma Cat. #S-6508; phosphotyrosine (PT66) assay kit from PerkinElmer Cat. #6760602M; automated workstation tips (20 μL): PerkinElmer Cat. #6000657; and OptiPlate-384 (white)—from PerkinElmer Cat. #6007299.
# [2] = molecular target: T2, IGF1R (Homo sapiens, UniProt P08069); test: IGF1R kinase assay; format: biochemical; settings: Table 1; read-out: IGF1R IC50
# T2 construct: 6×His- or GST-tagged kinase domain fragments of the corresponding RTKs expressed in baculovirus system; host or cells: baculovirus system
# T2 sequence (P08069 999-1274 limits assumed): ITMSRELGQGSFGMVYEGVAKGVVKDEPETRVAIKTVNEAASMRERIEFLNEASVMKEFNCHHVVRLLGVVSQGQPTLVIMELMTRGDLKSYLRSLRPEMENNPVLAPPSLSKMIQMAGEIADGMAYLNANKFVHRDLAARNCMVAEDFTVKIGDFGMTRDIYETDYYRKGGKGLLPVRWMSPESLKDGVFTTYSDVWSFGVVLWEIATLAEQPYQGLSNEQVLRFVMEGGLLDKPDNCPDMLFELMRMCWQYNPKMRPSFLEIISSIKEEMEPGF
# Method: as §1, §2
# [3] = molecular target: ALK (Homo sapiens, UniProt Q9UM73); test: ALK kinase assay (Kinase-Glo / AlphaScreen, purified NPM-ALK); format: biochemical; parameters: fused to the complete intracytoplasmic portion of ALK containing the functional tyrosine kinase domain; 6xHis; made in house; host or cells: insect cells; the other entry of the earlier key: NPM1 (P06748, Nucleophosmin); settings: Table 1; read-out: ALK IC50
# Chain of ALK (Q9UM73 with tags, fused parts or gaps): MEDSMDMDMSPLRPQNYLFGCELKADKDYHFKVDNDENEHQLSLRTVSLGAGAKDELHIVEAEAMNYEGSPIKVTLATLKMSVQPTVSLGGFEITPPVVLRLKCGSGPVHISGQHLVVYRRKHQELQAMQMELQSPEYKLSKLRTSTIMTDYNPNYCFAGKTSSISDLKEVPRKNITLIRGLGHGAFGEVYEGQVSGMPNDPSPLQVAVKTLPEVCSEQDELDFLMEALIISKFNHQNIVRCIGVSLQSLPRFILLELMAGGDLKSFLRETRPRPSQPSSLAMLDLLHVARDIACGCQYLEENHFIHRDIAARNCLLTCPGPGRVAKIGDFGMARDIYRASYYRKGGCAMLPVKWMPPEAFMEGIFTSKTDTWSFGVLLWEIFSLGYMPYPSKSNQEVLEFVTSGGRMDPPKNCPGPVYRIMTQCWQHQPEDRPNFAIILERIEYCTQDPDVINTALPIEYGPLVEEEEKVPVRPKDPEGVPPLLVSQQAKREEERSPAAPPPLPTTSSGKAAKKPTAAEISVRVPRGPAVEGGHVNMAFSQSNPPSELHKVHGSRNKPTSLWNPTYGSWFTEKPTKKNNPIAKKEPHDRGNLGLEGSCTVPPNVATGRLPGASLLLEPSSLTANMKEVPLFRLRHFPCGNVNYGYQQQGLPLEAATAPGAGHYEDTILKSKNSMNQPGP
# [4] = Caco-2 (TC7) A-B Permeability test (pH 6.5/7.4); settings: human, A-B Permeability (TC7, pH 6.5/7.4), test concentration 1.0E−05 M
# [5] = Aqueous Solubility (PBS, pH 7.4); format: physicochemical; settings: pH 7.4, 2.0E−04 M; for solubility: pH 7.4, PBS
# [6] = molecular target: hERG (Homo sapiens, UniProt Q12809); test: hERG Inhibition (Table 6E); format: cell-based; parameters: expressed in transfected cells; unit not given here
# Chain of hERG (Q12809 whole entry): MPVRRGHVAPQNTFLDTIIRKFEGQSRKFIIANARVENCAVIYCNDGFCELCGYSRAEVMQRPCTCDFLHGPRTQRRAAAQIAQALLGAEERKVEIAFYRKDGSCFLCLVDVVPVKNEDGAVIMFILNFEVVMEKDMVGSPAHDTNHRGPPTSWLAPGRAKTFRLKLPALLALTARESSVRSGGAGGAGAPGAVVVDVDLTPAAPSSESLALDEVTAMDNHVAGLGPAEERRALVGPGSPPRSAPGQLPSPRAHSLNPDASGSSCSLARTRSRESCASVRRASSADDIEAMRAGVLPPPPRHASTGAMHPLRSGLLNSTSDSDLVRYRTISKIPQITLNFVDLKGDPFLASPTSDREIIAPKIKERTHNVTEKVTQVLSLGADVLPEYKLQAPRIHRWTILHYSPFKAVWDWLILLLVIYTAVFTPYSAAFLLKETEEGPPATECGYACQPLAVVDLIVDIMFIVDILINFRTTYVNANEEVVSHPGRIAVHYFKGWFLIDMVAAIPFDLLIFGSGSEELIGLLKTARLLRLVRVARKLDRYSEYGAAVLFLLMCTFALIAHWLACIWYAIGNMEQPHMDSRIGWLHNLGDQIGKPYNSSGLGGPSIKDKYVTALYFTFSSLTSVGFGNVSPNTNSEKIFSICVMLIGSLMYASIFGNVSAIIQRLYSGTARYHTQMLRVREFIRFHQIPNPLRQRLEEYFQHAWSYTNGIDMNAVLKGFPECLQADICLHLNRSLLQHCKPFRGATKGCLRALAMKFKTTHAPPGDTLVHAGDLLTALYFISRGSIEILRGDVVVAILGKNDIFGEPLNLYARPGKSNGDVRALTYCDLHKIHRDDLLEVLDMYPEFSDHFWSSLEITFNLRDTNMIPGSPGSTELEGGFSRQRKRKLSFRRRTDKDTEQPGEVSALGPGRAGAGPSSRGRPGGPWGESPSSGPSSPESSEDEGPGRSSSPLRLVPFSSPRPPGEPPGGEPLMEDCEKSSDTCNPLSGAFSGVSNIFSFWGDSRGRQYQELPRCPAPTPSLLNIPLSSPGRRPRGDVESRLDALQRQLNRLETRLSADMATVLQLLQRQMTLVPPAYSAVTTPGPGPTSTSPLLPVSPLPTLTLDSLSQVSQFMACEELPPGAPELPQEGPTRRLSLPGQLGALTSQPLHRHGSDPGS
# Method: Compound (II) was initially tested at 1 μM concentration using a standard patch clamp protocol (Cerep ADMET Study 13170). The hERG channel was expressed in a human embryonic kidney (HEK293) cell line that lacks endogenous hERG channels. […] We have retested compound (II) in hERG assay in a range of lower concentrations to estimate IC50 of hERG inhibition more precisely (Qpatch 16 automated whole-cell patch clamp protocol in CHO-K1 cell line stably expressing hERG, Cerep hERG Study 13292). […] This kind of potency in hERG inhibition should not represent a significant clinical problem since the high degree of hERG inhibition would occur only at the compound concentrations above the expected therapeutic levels.
# [7] = Caco-2, pH 6.5, Mean Recovery, mean of n = 2
# [8] = Caco-2, pH 6.5, Permeability 1st, 1st replicate
# [9] = Caco-2, pH 6.5, Permeability 2nd, 2nd replicate
# [10] = Caco-2, pH 6.5, Present Recovery 1st, 1st replicate
# [11] = Caco-2, pH 6.5, Present Recovery 2nd, 2nd replicate
# [12] = Tables 9C, 9D, read-out: Solubility Mean
# [13] = individual data, read-out: Solubility 1st/2nd
# [14] = Caco-2, pH 6.5, Mean Permeability, mean of n = 2
# T1 sequence (P06213 1023-1298 limits assumed): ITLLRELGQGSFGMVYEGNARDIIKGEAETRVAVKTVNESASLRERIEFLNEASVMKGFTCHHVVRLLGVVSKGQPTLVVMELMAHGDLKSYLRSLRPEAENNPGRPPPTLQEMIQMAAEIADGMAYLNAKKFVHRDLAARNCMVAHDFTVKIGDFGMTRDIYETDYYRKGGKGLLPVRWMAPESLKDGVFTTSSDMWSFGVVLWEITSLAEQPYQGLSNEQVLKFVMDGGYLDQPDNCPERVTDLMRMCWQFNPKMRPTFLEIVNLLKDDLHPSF
smiles,measurement,setting,value
Cc1ccsc1C[C@H](C)Nc1cc[nH]c(=O)c1-c1nc2cc3c(cc2[nH]1)CN(CCN1CCC[C@H]1C)C3=O,IC50,[1],100 to 250 nM
same,IC50,[2],250 to 1000 nM
same,IC50,[3],10 to 100 nM
COc1cc2c(c(OC)c1OC)-c1ccc(OC)c(=O)cc1[C@@H](NC(C)=O)CC2 [Colchicine],recovery at 10 µM,[4]; [7],97%
same,Papp A→B at 10 µM,[4]; [8],0.9 ×10⁻⁶ cm/s
same,Papp A→B at 10 µM,[4]; [9],0.05 ×10⁻⁶ cm/s
same,recovery at 10 µM,[4]; [10],99%
same,recovery at 10 µM,[4]; [11],65%
O=C(CCCN1CCC(O)(c2ccc(Cl)cc2)CC1)c1ccc(F)cc1 [Haloperidol],Solubility 1st/2nd,[5]; individual data,61.29 μm
same,solubility,[5]; [12],61.9 µM
same,solubility,[5]; [13],62.5 µM
"CC(=O)N1CCN(c2ccc(OCC3COC(Cn4ccnc4)(c4ccc(Cl)cc4Cl)O3)cc2)CC1 (stereo not drawn) [Ketoconazole, ketoconazole, reference compound]",Solubility 1st/2nd,[5]; individual data,109.58 μm
same,solubility,[5]; [12],108 µM
same,solubility,[5]; [13],107 µM
CC(CCc1ccccc1)NCC(O)c1ccc(O)c(C(N)=O)c1 (stereo not drawn) [Labetalol],Papp A→B at 10 µM,[4]; [14],6 ×10⁻⁶ cm/s
same,recovery at 10 µM,[4]; [7],90%
same,Papp A→B at 10 µM,[4]; [8],5.8 ×10⁻⁶ cm/s
same,Papp A→B at 10 µM,[4]; [9],6.21 ×10⁻⁶ cm/s
same,recovery at 10 µM,[4]; [10],91%
same,recovery at 10 µM,[4]; [11],88%
O=C1NC(=O)C(c2ccccc2)(c2ccccc2)N1 [Phenytoin],Solubility 1st/2nd,[5]; individual data,86.44 μm
same,solubility,[5]; [12],87 µM
same,solubility,[5]; [13],87.7 µM
CNC(=C[N+](=O)[O-])NCCSCc1ccc(CN(C)C)o1 [Ranitidine],Papp A→B at 10 µM,[4]; [14],0.6 ×10⁻⁶ cm/s
same,recovery at 10 µM,[4]; [7],95%
same,Papp A→B at 10 µM,[4]; [8],0.58 ×10⁻⁶ cm/s
same,Papp A→B at 10 µM,[4]; [9],0.64 ×10⁻⁶ cm/s
same,recovery at 10 µM,[4]; [10],82%
same,recovery at 10 µM,[4]; [11],109%
C[C@@H](Cc1cccs1)Nc1cc[nH]c(=O)c1-c1nc2cc3c(cc2[nH]1)C(=O)N(CCCN1CCCC1)C3 [drawing 259],IC50,[1],100 to 250 nM
same,IC50,[2],250 to 1000 nM
same,IC50,[3],100 to 250 nM
Cc1ccc(F)cc1C[C@H](C)Nc1cc[nH]c(=O)c1-c1nc2c(C)c3c(cc2[nH]1)CN(CCN1CCCC1)C3=O [drawing 321],IC50,[1],100 to 250 nM
same,IC50,[2],100 to 250 nM
same,IC50,[3],< 10 nM
C[C@@H](Cc1cc(F)cc(F)c1F)Nc1cc[nH]c(=O)c1-c1nc2cc3c(cc2[nH]1)CN(CCN(C)C)C3=O [drawing 325],IC50,[1],250 to 1000 nM
same,IC50,[2],100 to 250 nM
same,IC50,[3],< 10 nM
C[C@@H](Cc1cc(F)cc(F)c1F)Nc1cc[nH]c(=O)c1-c1nc2cc3c(cc2[nH]1)CN(CCN1CCCC1)C3=O [drawing 327],IC50,[1],250 to 1000 nM
same,IC50,[2],250 to 1000 nM
same,IC50,[3],10 to 100 nM
C[C@@H](Cc1cc(F)ccc1Br)Nc1cc[nH]c(=O)c1-c1nc2cc3c(cc2[nH]1)CN(CCN1CCCC1)C3=O [drawing 330],IC50,[1],100 to 250 nM
same,IC50,[2],250 to 1000 nM
same,IC50,[3],< 10 nM
Cc1ccc(F)cc1C[C@H](C)Nc1cc[nH]c(=O)c1-c1nc2cc3c(cc2[nH]1)CN(CCN1CCC[C@H]1C)C3=O [drawing 339],IC50,[1],250 to 1000 nM
same,IC50,[2],> 1000 nM
same,IC50,[3],10 to 100 nM
C[C@@H]1CCCN1CCN1Cc2cc3[nH]c(-c4c(N[C@@H](C)Cc5cc(F)cc(F)c5F)cc[nH]c4=O)nc3cc2C1=O [drawing 340],IC50,[1],250 to 1000 nM
same,IC50,[2],> 1000 nM
same,IC50,[3],< 10 nM
C[C@@H](Cc1c(F)c(F)cc(F)c1F)Nc1cc[nH]c(=O)c1-c1nc2cc3c(cc2[nH]1)CN(CCN1CCCC1)C3=O [drawing 345],IC50,[1],250 to 1000 nM
same,IC50,[2],> 1000 nM
same,IC50,[3],< 10 nM
Cc1ccc(F)cc1C[C@H](C)Nc1cc[nH]c(=O)c1-c1nc2cc3c(cc2[nH]1)C(=O)N(CCN1CCCC1)C3 [drawing 364],hERG Inhibition,[6]; 25,22.5
same,hERG Inhibition,[6]; 100,28
same,hERG Inhibition,[6]; 1000,50.4
same,hERG Inhibition,[6]; column head 500,38.5
Cc1ccc(F)cc1C[C@H](C)Nc1cc[nH]c(=O)c1-c1nc2cc3c(cc2[nH]1)CN(CCN(C)C)C3=O [drawing 365],hERG Inhibition,[6]; 25,5.8
same,hERG Inhibition,[6]; 100,8.8
same,hERG Inhibition,[6]; 1000,6.8
same,hERG Inhibition,[6]; column head 500,11.1
same,hERG Inhibition,[6]; column head 3000,27.1
same,hERG Inhibition,[6]; column head 5000,50.0
C[C@@H](Cc1cc(F)cc(F)c1F)Nc1cc[nH]c(=O)c1-c1nc2cc3c(cc2[nH]1)CN(CCN1CCCC1)C3=O [drawing 366],hERG Inhibition,[6]; 25,6.00
same,hERG Inhibition,[6]; 100,9.7
same,hERG Inhibition,[6]; 1000,7.30
same,hERG Inhibition,[6]; column head 500,7.10
same,hERG Inhibition,[6]; column head 3000,33.20
same,hERG Inhibition,[6]; column head 5000,57.80
C[C@@H](Cc1cc(F)cc(F)c1F)Nc1cc[nH]c(=O)c1-c1nc2cc3c(cc2[nH]1)CN(CCN(C)C)C3=O [drawing 367],hERG Inhibition,[6]; 25,6.60
same,hERG Inhibition,[6]; 100,10.20
same,hERG Inhibition,[6]; column head 500,13.10

# — patent publication US9249147B2, “Tyrosine kinase inhibitors” (CHEMBRIDGE CORPORATION, priority 2008, dated 2016)
